Measurements published in US6770597B2, “Benzohydrazide derivatives as herbicides and desiccant compositions containing them” (Ishihara Sangyo Kaisha, Ltd., priority 2002, dated 2004).

Columns and labels:
Assay type in all cases: in vivo
[1] = system: field corn (Zea mays L., var. Dekalb 535, CORN); experiment: Greenhouse herbicide screen, pre-emerge application, crop damage rating; conditions: PRE emergent, 14 days after application, rating scale 0-100
Source text: (§1) A standard greenhouse herbicide activity screening system was used to evaluate the herbicidal efficacy and crop safety of these test compounds. Seven broadleaf weed species including redroot pigweed (Amaranthus retrofiexus, AMARE), velvetleaf (Abutilon theophrasti, ABUTH), sicklepod (Cassia obtusifolia, CASOB), ivyleaf morningglory (Ipomoea hederacea, IPOHE), lambsquarters (Chenopodium album, CHEAL), common ragweed (Ambrosia artemisiifolia L., AMBEL), and cocklebur (Xanthium strumarium, XANST) were used as test species. Four grass weed species including green foxtail (Setaria viridis, SETVI), barnyardgrass (Echinochloa crus-galli, ECHCG), johnsongrass (Sorghum halepense, SORHA), and large crabgrass (Digitaria sanguinalis, DIGSA) were also used. In addition, four crop species, field corn (Zea mays L., var. Dekalb 535, CORN), soybean (Glycine max L., var. Pella 86, SOY), upland rice (Oryza sp., var.Cocodrie, RICE) and wheat (Triticum aestivum L.) were included.
(§2) All plants were grown in 10 cm square plastic pots which were filled with a sandy loam soil mix. For pre-emerge tests, seeds were planted one day prior to application of the test compounds. For post-emerge tests, seeds were planted 8-21 days prior to the test to allow emergence and good foliage development prior to application of the test substances. At the time of the post-emerge application, plants of all species were usually at the 2-3 leaf stage of development.
(§3) All test compounds were dissolved in acetone and applied to the test units in a volume of 187 l/ha. Test materials were applied at rates ranging from 15 g ai/ha to 1000 g ai/ha using a track sprayer equipped with a TJ8001E even flow flat fan spray nozzle. Plants were arranged on a shelf so that the top of the canopy (post-emerge) or top of the soil surface (pre-emerge) was 40-45 cm below the nozzle. Pressurized air was used to force the test solution through the nozzle as it was mechanically advanced (via electrically driven chain drive) over the top of all test plants/pots. This application simulates a typical commercial field herbicide application.
(§4) Pre-emergence tests were top watered immediately after treatment to incorporate the test materials, then routinely top-watered for normal growth. Post-emerge test units were always bottom-watered.
(§5) At 14 days after application of the test materials, phytotoxicity ratings were recorded. A rating scale of 0-100 was used as previously described in Research Methods in Weed Science, 2nd edition, B. Truelove, Ed., Southern Weed Science Society, Auburn University, Auburn, Ala., 1977. Briefly, “0” corresponds to no damage and “100” corresponds to complete death of all plants in the test unit. This scale was used both to determine efficacy against weed species and damage to crop species. Herbicide activity data for various compounds of this invention, which are shown by compound No. in Tables 1-12, are shown in Tables 13 and 14.

[2] = system: upland rice (Oryza sp., var.Cocodrie, RICE); experiment: as above; conditions: PRE emergent, 14 days after application, rating scale 0-100
Source text: as §1, §2, §3, §4, §5

[3] = system: velvetleaf (Abutilon theophrasti, ABUTH); experiment: Greenhouse herbicide screen, post-emerge application, phytotoxicity rating; conditions: POST emergent, 14 days after application, scale 0-100
Source text: as §1, §2, §3, §4, §5

[4] = system: common ragweed (Ambrosia artemisiifolia L., AMBEL); experiment: as above; conditions: POST emergent, 14 days after application, scale 0-100
Source text: as §1, §2, §3, §4, §5

[5] = system: redroot pigweed (Amaranthus retrofiexus, AMARE); experiment: as above; conditions: POST emergent, 14 days after application
Source text: as §1, §2, §3, §4, §5

[6] = system: green foxtail (Setaria viridis, SETVI); experiment: as above; conditions: POST emergent, 14 days after application, scale 0-100
Source text: as §1, §2, §3, §4, §5

[7] = system: lambsquarters (Chenopodium album, CHEAL); experiment: as above; conditions: POST emergent, 14 days after application, scale 0-100
Source text: as §1, §2, §3, §4, §5

[8] = system: sicklepod (Cassia obtusifolia, CASOB); experiment: as above; conditions: POST emergent, 14 days after application, scale 0-100
Source text: as §1, §2, §3, §4, §5

[9] = system: barnyardgrass (Echinochloa crus-galli, ECHCG); experiment: as above; conditions: POST emergent, 14 days after application, scale 0-100
Source text: as §1, §2, §3, §4, §5

[10] = system: large crabgrass (Digitaria sanguinalis, DIGSA); experiment: as above; conditions: POST emergent, 14 days after application, scale 0-100
Source text: as §1, §2, §3, §4, §5

[11] = system: ivyleaf morningglory (Ipomoea hederacea, IPOHE); experiment: as above; conditions: POST emergent, 14 days after application, scale 0-100
Source text: as §1, §2, §3, §4, §5

[12] = system: cocklebur (Xanthium strumarium, XANST); experiment: as above; conditions: POST emergent, 14 days after application, scale 0-100
Source text: as §1, §2, §3, §4, §5

[13] = system: johnsongrass (Sorghum halepense, SORHA); experiment: as above; conditions: POST emergent, 14 days after application, scale 0-100
Source text: as §1, §2, §3, §4, §5

[14] = system: velvetleaf (Abutilon theophrasti, ABUTH); experiment: Greenhouse herbicide screen, pre-emerge application, phytotoxicity rating; conditions: PRE emergent, 14 days after application, rating scale 0-100
Source text: as §1, §2, §3, §4, §5

[15] = system: common ragweed (Ambrosia artemisiifolia L., AMBEL); experiment: as above; conditions: PRE emergent, 14 days after application, rating scale 0-100
Source text: as §1, §2, §3, §4, §5

[16] = system: redroot pigweed (Amaranthus retrofiexus, AMARE); experiment: as above; conditions: PRE emergent, 14 days after application, rating scale 0-100
Source text: as §1, §2, §3, §4, §5

[17] = system: green foxtail (Setaria viridis, SETVI); experiment: as above; conditions: PRE emergent, 14 days after application, rating scale 0-100
Source text: as §1, §2, §3, §4, §5

[18] = system: lambsquarters (Chenopodium album, CHEAL); experiment: as above; conditions: PRE emergent, 14 days after application, rating scale 0-100
Source text: as §1, §2, §3, §4, §5

[19] = system: sicklepod (Cassia obtusifolia, CASOB); experiment: as above; conditions: PRE emergent, 14 days after application, rating scale 0-100
Source text: as §1, §2, §3, §4, §5

[20] = system: barnyardgrass (Echinochloa crus-galli, ECHCG); experiment: as above; conditions: PRE emergent, 14 days after application, rating scale 0-100
Source text: as §1, §2, §3, §4, §5

[21] = system: large crabgrass (Digitaria sanguinalis, DIGSA); experiment: as above; conditions: PRE emergent, 14 days after application, rating scale 0-100
Source text: as §1, §2, §3, §4, §5

[22] = system: ivyleaf morningglory (Ipomoea hederacea, IPOHE); experiment: as above; conditions: PRE emergent, 14 days after application, rating scale 0-100
Source text: as §1, §2, §3, §4, §5

[23] = system: cocklebur (Xanthium strumarium, XANST); experiment: as above; conditions: PRE emergent, 14 days after application, rating scale 0-100
Source text: as §1, §2, §3, §4, §5

[24] = system: johnsongrass (Sorghum halepense, SORHA); experiment: as above; conditions: PRE emergent, 14 days after application, rating scale 0-100
Source text: as §1, §2, §3, §4, §5

[25] = system: field corn (Zea mays L., var. Dekalb 535, CORN); experiment: Greenhouse herbicide screen, post-emerge application, crop damage rating; conditions: POST emergent, 14 days after application, scale 0-100
Source text: as §1, §2, §3, §4, §5

[26] = system: upland rice (Oryza sp., var.Cocodrie, RICE); experiment: as above; conditions: POST emergent, 14 days after application, scale 0-100
Source text: as §1, §2, §3, §4, §5

## CCOC(=O)NNC(=O)c1cc(-n2c(=O)cc(C(F)(F)F)n(C)c2=O)c(F)cc1Cl [Compound 1-23]
[1]; 63 g ai/ha
  crop damage rating CORN: 80
[1]; 250 g ai/ha
  crop damage rating CORN: 100
[2]; 63 g ai/ha
  crop damage rating RICE: 45
[2]; 250 g ai/ha
  crop damage rating RICE: 85
[3]; 63 g ai/ha
  phytotoxicity rating ABUTH: 100
[3]; 250 g ai/ha
  phytotoxicity rating ABUTH: 100
[4]; 63 g ai/ha
  phytotoxicity rating AMBEL: 85
[4]; 250 g ai/ha
  phytotoxicity rating AMBEL: 100
[5]; 63 g ai/ha, scale 0-100 (0 no damage, 100 complete death)
  phytotoxicity rating AMARE: 100
[5]; 250 g ai/ha, scale 0-100
  phytotoxicity rating AMARE: 100
[6]; 63 g ai/ha
  phytotoxicity rating SETVI: 55
[6]; 250 g ai/ha
  phytotoxicity rating SETVI: 99
[7]; 63 g ai/ha
  phytotoxicity rating CHEAL: 100
[7]; 250 g ai/ha
  phytotoxicity rating CHEAL: 100
[8]; 63 g ai/ha
  phytotoxicity rating CASOB: 98
[8]; 250 g ai/ha
  phytotoxicity rating CASOB: 98
[9]; 63 g ai/ha
  phytotoxicity rating ECHCO: 50
[9]; 250 g ai/ha
  phytotoxicity rating ECHCO: 75
[10]; 63 g ai/ha
  phytotoxicity rating DIGSA: 75
[10]; 250 g ai/ha
  phytotoxicity rating DIGSA: 75
[11]; 63 g ai/ha
  phytotoxicity rating IPOHE: 98
[11]; 250 g ai/ha
  phytotoxicity rating IPOHE: 100
[12]; 63 g ai/ha
  phytotoxicity rating XANST: 100
[12]; 250 g ai/ha
  phytotoxicity rating XANST: 100
[13]; 63 g ai/ha
  phytotoxicity rating SORHA: 70
[13]; 250 g ai/ha
  phytotoxicity rating SORHA: 99
[14]; 63 g ai/ha
  phytotoxicity rating ABUTH: 100
[14]; 250 g ai/ha
  phytotoxicity rating ABUTH: 100
[15]; 63 g ai/ha
  phytotoxicity rating AMBEL: 85
[15]; 250 g ai/ha
  phytotoxicity rating AMBEL: 100
[16]; 63 g ai/ha
  phytotoxicity rating AMARE: 100
[16]; 250 g ai/ha
  phytotoxicity rating AMARE: 100
[17]; 63 g ai/ha
  phytotoxicity rating SETVI: 55
[17]; 250 g ai/ha
  phytotoxicity rating SETVI: 99
[18]; 63 g ai/ha
  phytotoxicity rating CHEAL: 100
[18]; 250 g ai/ha
  phytotoxicity rating CHEAL: 100
[19]; 63 g ai/ha
  phytotoxicity rating CASOB: 98
[19]; 250 g ai/ha
  phytotoxicity rating CASOB: 98
[20]; 63 g ai/ha
  phytotoxicity rating ECHCG: 50
[20]; 250 g ai/ha
  phytotoxicity rating ECHCG: 75
[21]; 63 g ai/ha
  phytotoxicity rating DIGSA: 75
[21]; 250 g ai/ha
  phytotoxicity rating DIGSA: 75
[22]; 63 g ai/ha
  phytotoxicity rating IPOHE: 98
[22]; 250 g ai/ha
  phytotoxicity rating IPOHE: 100
[23]; 63 g ai/ha
  phytotoxicity rating XANST: 100
[23]; 250 g ai/ha
  phytotoxicity rating XANST: 100
[24]; 63 g ai/ha
  phytotoxicity rating SORHA: 70
[24]; 250 g ai/ha
  phytotoxicity rating SORHA: 99
[25]; 63 g ai/ha
  crop damage rating CORN: 80
[25]; 250 g ai/ha
  crop damage rating CORN: 100
[26]; 63 g ai/ha
  crop damage rating RICE: 45
[26]; 250 g ai/ha
  crop damage rating RICE: 85
